How the values were obtained:
[1] = tested on: ocular normotensive New Zealand white rabbits; assay: Intraocular pressure (IOP) lowering effects in ocular normotensive New Zealand white rabbits (topical dosing, pneumatonometer); format: in vivo
[2] = tested on: laser-induced ocular hypertensive non-human primates; assay: Intraocular pressure (IOP) lowering effect in laser-induced ocular hypertensive non-human primates (topical dosing, pneumatonometer); format: in vivo
[3] = Example 26, 2.0% w/v, 30 μL topical

SMILES: COc1ccc(CNc2nc(N3CCC[C@H]3COC(=O)CCOC[C@@H](CO[N+](=O)[O-])O[N+](=O)[O-])ncc2C(=O)NCc2ncccn2)cc1Cl.O=C(O)CC(O)(CC(=O)O)C(=O)O [Compound (12)-(2S)-citrate salt, ((S)-1-(4-(3-chloro-4-methoxybenzylamino)-5-(pyrimidin-2-ylmethylcarbamoyl)pyrimidin-2-yl)pyrrolidin-2-yl)methyl 3-((S)-2,3-bis(nitrooxy)propoxy)propanoate 2-hydroxypropane-1,2,3-tricarboxylate]
- IOP change (mmHg) 30 min ([1]; rabbit, in vivo): −5.6 ± 0.9 mmHg
- IOP change (mmHg) 60 min ([1]; rabbit, in vivo): −3.9 ± 1.0 mmHg
- IOP change (mmHg) 120 min ([1]; rabbit, in vivo): −2.4 ± 0.8 mmHg

SMILES: COc1ccc(CNc2nc(N3CCC[C@H]3COC(=O)CCCCCO[N+](=O)[O-])ncc2C(=O)NCc2ncccn2)cc1Cl.O=C(O)CC(O)(CC(=O)O)C(=O)O [Compound (9)-citrate salt, (S)-(1-(4-(3-chloro-4-methoxybenzylamino)-5-(pyrimidin-2-ylmethylcarbamoyl)pyrimidin-2-yl)pyrrolidin-2-yl)methyl 6-(nitrooxy)hexanoate 2-hydroxypropane-1,2,3-tricarboxylate]
- IOP change (mmHg) E480 ([2]; in vivo): −6.0±2.1 mmHg
- IOP change (mmHg) Emax ([2]; in vivo): −6.0±2.1 mmHg

SMILES: CCCOc1ccc(S(=O)(=O)N2CCN(CCO)CC2)cc1-c1nc2c(CCC)cn(CC)c2c(=O)[nH]1 [Mirodenafil, reference compound]
- IOP change (mmHg) E300 min ([2]; Example 22, Table 1, 300 min post-dose, topical 30 μL, 0.48 μmoles/eye (1.17 μmoles/eye for (IIIg)-OH), mean±SEM n=13): −3.4 ± 2.3 mmHg
- time post-dosing of Emax ([2]; Example 22, Table 1, topical 30 μL, 0.48 μmoles/eye (1.17 μmoles/eye for (IIIg)-OH)): 180 min
- IOP change (mmHg) Emax ([2]; Example 22, Table 1, topical 30 μL, 0.48 μmoles/eye (1.17 μmoles/eye for (IIIg)-OH), change versus basal and vehicle, mean±SEM n=13): −5.0 ± 2.1 mmHg
- IOP change (mmHg) 30 min ([2]; Example 27, Table 6, 0.31 μmoles/eye (each compound), 30 μL topical, 30 min post-dose, mean±SEM n=13): −2.2 ± 1.4 mmHg
- IOP change (mmHg) 60 min ([2]; Example 27, Table 6, 0.31 μmoles/eye (each compound), 30 μL topical, 60 min post-dose, mean±SEM n=13): −4.1 ± 1.5 mmHg
- IOP change (mmHg) 180 min ([2]; Example 27, Table 6, 0.31 μmoles/eye (each compound), 30 μL topical, 180 min post-dose, mean±SEM n=13): −3.8 ± 1.0 mmHg
- IOP change (mmHg) 300 min ([2]; Example 27, Table 6, 0.31 μmoles/eye (each compound), 30 μL topical, 300 min post-dose, mean±SEM n=13): −2.2 ± 1.1 mmHg
- IOP change (mmHg) 1440 min ([2]; Example 27, Table 6, 0.31 μmoles/eye (each compound), 30 μL topical, 1440 min post-dose, mean±SEM n=13): −1.0 ± 1.1 mmHg
- IOP change (mmHg) E300 min ([1]; Example 24, Table 3, 300 min post-dosing, topical 50 μL, 0.5 μmoles/eye (each compound), mean±SEM n=6-9): −1.46 ± 0.79 mmHg
- time post-dosing of Emax ([1]; Example 24, Table 3, topical 50 μL, 0.5 μmoles/eye (each compound)): 120 min
- IOP change (mmHg) Emax ([1]; Example 24, Table 3, topical 50 μL, 0.5 μmoles/eye (each compound), change versus basal and vehicle, mean±SEM n=6-9): −3.68 ± 0.89 mmHg

SMILES: CCCOc1ccc(S(=O)(=O)N2CCN(CCO[N+](=O)[O-])CC2)cc1-c1nc2c(CCC)cn(CC)c2c(=O)[nH]1 [PDE5 nitrate ester, 2-(4-(3-(5-ethyl-4-oxo-7-propyl-4,5-dihydro-3H-pyrrolo[3,2-d]pyrimidin-2-yl)-4-propoxyphenylsulfonyl)piperazin-1-yl)ethyl Nitrate, reference compound]
- IOP change (mmHg) E180 min ([1]; Example 25, Table 4, 180 min post-dosing, topical, 0.5 μmoles/eye, mean±SEM n=6-9): 0.3 ± 0.8 mmHg
- time post dosing of Emax ([1]; Example 25, Table 4, topical, 0.5 μmoles/eye): 60 min
- IOP change (mmHg) Emax ([1]; Example 25, Table 4, topical, 0.5 μmoles/eye, change versus basal and vehicle, mean±SEM n=6-9): −2.6 ± 0.5 mmHg

SMILES: COc1ccc(CNc2nc(N3CCC[C@H]3COC(=O)CCCCCO[N+](=O)[O-])ncc2C(=O)NCc2ncccn2)cc1Cl.O=C(O)/C=C/C(=O)O [Compound (9)-fumarate salt, (S)-(1-(4-(3-chloro-4-methoxybenzylamino)-5-(pyrimidin-2-ylmethylcarbamoyl)pyrimidin-2-yl)pyrrolidin-2-yl)methyl 6-(nitrooxy)hexanoate Fumarate]
- IOP change (mmHg) 30 min ([2]; Example 26, Table 5, 2.0% w/v, 30 μL topical, 30 min post-dosing, mean±SEM n=8 eye): −4.0 ± 1.3 mmHg
- IOP change (mmHg) 60 min ([2]; Example 26, Table 5, 2.0% w/v, 30 μL topical, 60 min post-dosing, mean±SEM n=8 eye): −3.5 ± 1.6 mmHg
- IOP change (mmHg) 300 min ([2]; Example 26, Table 5, 2.0% w/v, 30 μL topical, 300 min post-dosing, mean±SEM n=8 eye): −4.1 ± 2.7 mmHg
- IOP change (mmHg) 1440 min ([2]; Example 26, Table 5, 2.0% w/v, 30 μL topical, 1440 min (24 hours) post-dosing, mean±SEM n=8 eye, Fumarate): −2.8±2.0 mmHg
- maximum intraocular pressure-lowering efficacy, Emax [2, 3]: −4.1±2.7 mmHg
- time of Emax [2, 3]: 300 min

SMILES: CCCOc1ccc(S(=O)(=O)N2CCN(CCOC(=O)CCOC[C@@H](CO[N+](=O)[O-])O[N+](=O)[O-])CC2)cc1-c1nc2c(CCC)cn(CC)c2c(=O)[nH]1.O=C(O)CC(O)(CC(=O)O)C(=O)O [Compound (1)-(2S)-citrate salt, (S)-2-(4-(3-(5-ethyl-4-oxo-7-propyl-4,5-dihydro-3H-pyrrolo[3,2-d]pyrimidin-2-yl)-4-propoxyphenylsulfonyl)piperazin-1-yl)ethyl 3-[2,3-bis(nitrooxy)propoxy]propanoate citrate]
- IOP change (mmHg) 30 min ([2]; in vivo): −4.0 ± 0.9 mmHg
- IOP change (mmHg) 60 min ([2]; in vivo): −5.3 ± 1.0 mmHg
- IOP change (mmHg) 180 min ([2]; in vivo): −4.9 ± 1.5 mmHg
- IOP change (mmHg) 300 min ([2]; in vivo): −4.4 ± 0.9 mmHg
- IOP change (mmHg) 1440 min ([2]; in vivo): −2.6 ± 1.3 mmHg
- IOP change (mmHg) E300 min ([2]; in vivo): −5.3 ± 1.9 mmHg
- IOP change (mmHg) Emax ([2]; in vivo): −7.0 ± 0.9 (60 min) mmHg
- IOP change (mmHg) E180 min ([1]; rabbit, in vivo): −1.8 ± 0.8 mmHg
- IOP change (mmHg) Emax ([1]; rabbit, in vivo): −3.8 ± 0.5 (60 min) mmHg
- IOP change at Emax ([1]; rabbit, in vivo): −3.8 ± 0.5 (60 min)

SMILES: O=C(O)CCCCCO[N+](=O)[O-] [(IIIa)-OH, 6-(nitrooxy)hexanoic acid]
- IOP change (mmHg) E480 ([2]; in vivo): −2.7±1.5 mmHg
- IOP change (mmHg) Emax ([2]; in vivo): −5.2±1.0 mmHg

From US11980618B2, “Nitric oxide releasing phosphodiesterase type 5 inhibitor” (NICOX S.A., priority 2018, dated 2024)
